Drawing on ChEMBL document CHEMBL2169811, “Oncoepigenomics: making histone lysine methylation count” (Eur J Med Chem, 2012), this text covers IC50 and Kd for 2 compounds.

Experiment [1] in a line: Inhibition of Drosophila melanogaster SET7/9.
Experiment [2] has as its target T1, Histone-lysine N-methyltransferase Set8 (Drosophila melanogaster, UniProt Q9VFK6).
T1 sequence (Q9VFK6 whole entry): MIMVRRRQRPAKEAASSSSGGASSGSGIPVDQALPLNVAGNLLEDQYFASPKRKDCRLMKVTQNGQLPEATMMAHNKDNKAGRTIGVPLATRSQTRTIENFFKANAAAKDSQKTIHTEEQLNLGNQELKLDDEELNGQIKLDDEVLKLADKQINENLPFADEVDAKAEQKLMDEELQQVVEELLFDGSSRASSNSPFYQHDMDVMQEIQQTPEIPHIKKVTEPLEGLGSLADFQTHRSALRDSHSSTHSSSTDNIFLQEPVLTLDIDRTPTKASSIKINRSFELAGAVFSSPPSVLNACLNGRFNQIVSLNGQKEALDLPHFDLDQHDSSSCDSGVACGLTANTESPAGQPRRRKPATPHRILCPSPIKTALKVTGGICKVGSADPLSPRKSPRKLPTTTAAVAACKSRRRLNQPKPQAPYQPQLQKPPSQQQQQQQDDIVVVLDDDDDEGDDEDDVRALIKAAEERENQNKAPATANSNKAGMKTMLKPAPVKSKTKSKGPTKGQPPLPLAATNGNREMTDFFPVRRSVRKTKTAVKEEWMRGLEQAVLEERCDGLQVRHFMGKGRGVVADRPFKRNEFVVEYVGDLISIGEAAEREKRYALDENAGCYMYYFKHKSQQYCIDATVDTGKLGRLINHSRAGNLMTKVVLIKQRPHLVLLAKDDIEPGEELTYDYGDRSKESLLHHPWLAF
Nature of the experiment: Inhibition of Drosophila melanogaster PRSET7.

Experiment [3] in a line: Inhibition of Neurospora crassa dim5.
Experiment [4] has as its target Histone-lysine N-methyltransferase E(z) (Drosophila melanogaster, UniProt P42124). Nature of the experiment: Inhibition of Drosophila melanogaster E(Z).
Experiment [5] has as its target T2, Histone-lysine N-methyltransferase SUV39H1 (Homo sapiens, UniProt O43463).
T2 sequence (O43463 whole entry): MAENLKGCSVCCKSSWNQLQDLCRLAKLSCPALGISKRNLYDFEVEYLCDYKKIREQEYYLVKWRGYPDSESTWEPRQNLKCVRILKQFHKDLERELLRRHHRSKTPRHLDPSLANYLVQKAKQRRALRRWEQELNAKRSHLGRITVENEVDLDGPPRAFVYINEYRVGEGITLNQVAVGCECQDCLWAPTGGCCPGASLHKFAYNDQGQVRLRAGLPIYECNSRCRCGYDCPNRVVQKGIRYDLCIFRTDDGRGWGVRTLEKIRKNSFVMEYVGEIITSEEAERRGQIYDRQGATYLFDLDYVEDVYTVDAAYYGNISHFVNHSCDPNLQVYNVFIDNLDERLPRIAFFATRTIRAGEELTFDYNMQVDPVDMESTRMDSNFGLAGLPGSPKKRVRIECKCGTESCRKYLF
Nature of the experiment: Inhibition of human SUV39H1.

The target of experiment [6] is T3, Histone-lysine N-methyltransferase EHMT2 (Homo sapiens, UniProt Q96KQ7).
T3 sequence (Q96KQ7 whole entry): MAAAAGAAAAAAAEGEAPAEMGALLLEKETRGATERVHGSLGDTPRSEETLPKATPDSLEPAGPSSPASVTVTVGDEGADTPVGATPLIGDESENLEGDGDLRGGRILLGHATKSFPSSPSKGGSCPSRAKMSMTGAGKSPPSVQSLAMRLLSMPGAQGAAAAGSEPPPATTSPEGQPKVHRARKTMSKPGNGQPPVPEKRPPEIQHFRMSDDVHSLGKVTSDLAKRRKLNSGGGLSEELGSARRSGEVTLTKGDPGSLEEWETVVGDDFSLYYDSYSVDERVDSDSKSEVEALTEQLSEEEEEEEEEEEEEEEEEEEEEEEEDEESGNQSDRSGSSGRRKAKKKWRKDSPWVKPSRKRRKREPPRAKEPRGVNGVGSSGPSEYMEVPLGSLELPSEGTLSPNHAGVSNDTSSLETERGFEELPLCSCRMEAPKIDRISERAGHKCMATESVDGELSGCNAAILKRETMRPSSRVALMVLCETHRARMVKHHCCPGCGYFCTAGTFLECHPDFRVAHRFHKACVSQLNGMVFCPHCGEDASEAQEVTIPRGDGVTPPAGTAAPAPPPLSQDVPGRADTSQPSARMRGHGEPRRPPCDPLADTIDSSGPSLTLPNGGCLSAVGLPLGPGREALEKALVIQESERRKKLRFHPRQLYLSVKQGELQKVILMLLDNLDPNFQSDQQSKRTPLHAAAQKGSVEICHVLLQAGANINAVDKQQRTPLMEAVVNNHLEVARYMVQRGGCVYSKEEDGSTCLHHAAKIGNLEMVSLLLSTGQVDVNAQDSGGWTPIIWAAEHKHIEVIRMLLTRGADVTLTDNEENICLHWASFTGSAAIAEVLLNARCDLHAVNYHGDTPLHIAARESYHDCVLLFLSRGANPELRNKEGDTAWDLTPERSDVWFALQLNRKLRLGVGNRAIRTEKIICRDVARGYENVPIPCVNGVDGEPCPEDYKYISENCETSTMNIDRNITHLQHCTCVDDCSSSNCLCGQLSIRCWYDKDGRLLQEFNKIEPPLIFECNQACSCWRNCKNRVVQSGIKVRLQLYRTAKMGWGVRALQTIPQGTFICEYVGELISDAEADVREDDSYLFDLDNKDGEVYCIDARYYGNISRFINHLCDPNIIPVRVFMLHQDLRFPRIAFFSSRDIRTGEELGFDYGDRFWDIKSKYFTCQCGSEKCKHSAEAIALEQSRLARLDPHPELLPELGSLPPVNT
Description: Inhibition of GST-tagged G9a after 1 hr by radioactive filter-binding assay

Experiment [7] has as its target T3, Histone-lysine N-methyltransferase EHMT2. Briefly: Inhibition of human recombinant G9a catalytic domain amino acid 913 to 1193 expressed in Escherichia coli BL21 (DE3) by mass spectrophotometric assay.
The target in experiment [8] is T4, Histone-lysine N-methyltransferase EHMT1 (Homo sapiens, UniProt Q9H9B1).
T4 sequence (Q9H9B1 whole entry): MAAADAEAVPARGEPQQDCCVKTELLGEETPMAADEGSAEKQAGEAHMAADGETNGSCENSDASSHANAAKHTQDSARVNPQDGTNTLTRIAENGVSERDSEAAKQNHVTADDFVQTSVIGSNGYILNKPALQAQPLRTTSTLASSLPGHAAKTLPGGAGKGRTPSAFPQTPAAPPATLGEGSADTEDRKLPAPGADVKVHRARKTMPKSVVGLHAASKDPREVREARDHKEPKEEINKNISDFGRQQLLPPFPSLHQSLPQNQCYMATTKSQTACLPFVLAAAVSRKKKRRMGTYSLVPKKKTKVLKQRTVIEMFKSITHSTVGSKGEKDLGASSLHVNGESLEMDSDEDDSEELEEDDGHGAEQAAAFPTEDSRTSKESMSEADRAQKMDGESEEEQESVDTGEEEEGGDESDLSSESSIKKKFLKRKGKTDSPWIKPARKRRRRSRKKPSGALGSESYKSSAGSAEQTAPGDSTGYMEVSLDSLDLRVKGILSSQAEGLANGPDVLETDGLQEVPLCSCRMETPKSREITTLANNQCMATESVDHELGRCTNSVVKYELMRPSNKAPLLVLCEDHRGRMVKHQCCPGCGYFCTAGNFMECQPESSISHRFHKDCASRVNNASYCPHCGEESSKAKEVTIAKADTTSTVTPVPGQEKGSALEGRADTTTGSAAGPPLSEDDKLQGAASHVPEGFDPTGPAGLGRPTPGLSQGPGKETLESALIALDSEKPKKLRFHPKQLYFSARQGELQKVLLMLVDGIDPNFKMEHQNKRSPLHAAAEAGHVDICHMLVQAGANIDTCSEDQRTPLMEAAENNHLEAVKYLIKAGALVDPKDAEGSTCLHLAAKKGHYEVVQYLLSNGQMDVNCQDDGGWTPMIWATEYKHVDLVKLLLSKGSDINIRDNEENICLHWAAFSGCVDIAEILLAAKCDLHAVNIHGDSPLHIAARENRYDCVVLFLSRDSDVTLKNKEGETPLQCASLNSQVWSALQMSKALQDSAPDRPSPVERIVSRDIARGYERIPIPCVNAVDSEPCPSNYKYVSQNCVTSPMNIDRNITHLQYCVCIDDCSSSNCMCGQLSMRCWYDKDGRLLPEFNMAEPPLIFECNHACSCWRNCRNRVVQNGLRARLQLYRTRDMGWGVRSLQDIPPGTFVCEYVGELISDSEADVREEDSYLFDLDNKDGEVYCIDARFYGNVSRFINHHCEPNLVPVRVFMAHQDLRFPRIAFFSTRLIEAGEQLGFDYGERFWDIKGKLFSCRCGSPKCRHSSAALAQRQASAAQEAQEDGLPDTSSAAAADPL
Briefly: Binding affinity to human recombinant GLP catalytic domain amino acid 951 to 1235 expressed in Escherichia coli BL21 (DE3) by isothermal titration calorimetry assay.

The target of experiment [9] is T3, Histone-lysine N-methyltransferase EHMT2. Briefly: Binding affinity to human recombinant G9a catalytic domain amino acid 913 to 1193 expressed in Escherichia coli BL21 (DE3) by isothermal titration calorimetry assay.

Histone-lysine N-methyltransferase E(z), sequence (P42124 whole entry): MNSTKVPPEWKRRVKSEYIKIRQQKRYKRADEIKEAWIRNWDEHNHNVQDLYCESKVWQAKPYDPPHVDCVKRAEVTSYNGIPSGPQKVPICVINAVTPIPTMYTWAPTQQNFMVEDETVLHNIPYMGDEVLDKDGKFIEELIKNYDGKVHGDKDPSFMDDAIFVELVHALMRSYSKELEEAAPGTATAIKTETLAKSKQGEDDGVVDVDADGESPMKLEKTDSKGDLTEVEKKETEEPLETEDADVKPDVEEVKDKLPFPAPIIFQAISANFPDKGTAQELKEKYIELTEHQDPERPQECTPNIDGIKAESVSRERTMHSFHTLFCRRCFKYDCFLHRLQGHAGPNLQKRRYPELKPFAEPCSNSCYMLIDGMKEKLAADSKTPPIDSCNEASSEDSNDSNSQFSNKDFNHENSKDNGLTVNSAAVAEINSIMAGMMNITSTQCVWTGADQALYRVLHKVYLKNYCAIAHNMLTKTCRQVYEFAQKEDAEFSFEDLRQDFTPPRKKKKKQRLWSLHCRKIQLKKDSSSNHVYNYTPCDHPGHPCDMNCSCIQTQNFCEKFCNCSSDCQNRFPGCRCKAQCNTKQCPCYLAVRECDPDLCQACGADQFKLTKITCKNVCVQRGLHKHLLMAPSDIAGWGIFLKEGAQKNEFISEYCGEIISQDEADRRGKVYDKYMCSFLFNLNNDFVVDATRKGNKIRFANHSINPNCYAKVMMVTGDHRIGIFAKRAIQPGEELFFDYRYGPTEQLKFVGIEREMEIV

Regarding `CN1C(=O)[C@@]23C[C@]4([C@]56C[C@@]78SS[C@@](CO)(C(=O)N7[C@H]5Nc5ccccc56)N(C)C8=O)c5ccccc5N[C@@H]4N2C(=O)[C@]1(CO)SS3` [CHAETOCIN], the IC50 was greater than 90 µM in experiment [1]; greater than 90 µM in [2]; 3 µM in [3]; greater than 90 µM in experiment [4]; 0.8 µM in experiment [5]; 2.4 µM in experiment [6].
As to `COc1cc2c(NC3CCN(CCCCCN)CC3)nc(NCCCN(C)C)nc2cc1OCCCCCN`, in [7], the IC50 is 1.3 µM. Also, the Kd in experiment [8] is 0.136 µM; in experiment [9], 0.164 µM.
